Data as given in ChEMBL document CHEMBL1137080, “Synthesis and antiviral activity of (Z)- and (E)-2,2-[bis(hydroxymethyl)cyclopropylidene]methylpurines and -pyrimidines: second-generation methylenecyclopropane analogues of nucleosides” (J Med Chem, 2004).
pEC50: −log10 of the molar value.

Experiments:
Murid betaherpesvirus 1 = experiment: In vitro cytotoxic concentration required to inhibit murine cytomegalovirus (MCMV) replication in MEF cell line; assay type: functional
Human betaherpesvirus 5 [1] = experiment: In vitro effective concentration required to inhibit towne strain of human cytomegalovirus (HCMV) replication in HFF cell line; assay type: functional, organism-based; details: Human betaherpesvirus 5, HFF
Human betaherpesvirus 5 [2] = experiment: In vitro cytotoxic concentration required to inhibit towne strain of human cytomegalovirus (HCMV) replication in HFF cell line; assay type: functional; details: Human betaherpesvirus 5, HFF
Human betaherpesvirus 5 [3] = experiment: In vitro effective concentration required to inhibit AD169 strain of human cytomegalovirus (HCMV) replication in HFF cell line; assay type: functional, organism-based; details: Human betaherpesvirus 5, HFF
MEF = experiment: In vitro effective concentration required to inhibit murine cytomegalovirus (MCMV) replication in MEF cell line; assay type: functional, cell-based; details: Mus musculus
HFF [4] = experiment: In vitro cytotoxic concentration required to inhibit AD169 strain of human cytomegalovirus (HCMV) replication in HFF cell line; assay type: functional
HepG2 = experiment: In vitro cytotoxic concentration required to inhibit hepatitisB virus (HBV) replication in 2.2.15 cell line; assay type: functional; details: Homo sapiens
Hepatitis B virus = experiment: In vitro effective concentration required to inhibit hepatitisB virus (HBV) replication in 2.2.15 cell line; assay type: functional, organism-based
Human gammaherpesvirus 4 [5] = experiment: In vitro cytotoxic concentration required to inhibit Epstein-Barr virus (EBV) replication in Daudi cells; assay type: functional; details: human gammaherpesvirus 4, Daudi
Human gammaherpesvirus 4 [6] = experiment: In vitro effective concentration required to inhibit Epstein-Barr virus (EBV) replication in H-1 cell line; assay type: functional, organism-based; details: human gammaherpesvirus 4, H-1
Human alphaherpesvirus 3 = experiment: In vitro effective concentration required to inhibit varicella zoster virus (VZV) replication in HFF cell line; assay type: functional, organism-based; details: Human alphaherpesvirus 3, HFF
Human gammaherpesvirus 4 [7] = experiment: In vitro effective concentration required to inhibit Epstein-Barr virus (EBV) replication in Daudi cells; assay type: functional, organism-based; details: human gammaherpesvirus 4, Daudi
HFF [8] = experiment: In vitro effective concentration required to inhibit varicella zoster virus (VZV) replication in HFF cell line by plaque reduction assay; assay type: functional, cell-based; details: Homo sapiens

SMILES	CC50 (Murid betaherpesvirus 1; Murid betaherpesvirus 1, MEF) [µM]	pEC50 (Human betaherpesvirus 5 [1])	CC50 (Human betaherpesvirus 5 [2]) [µM]	pEC50 (Human betaherpesvirus 5 [3])	pEC50 (MEF)	CC50 (HFF [4]) [µM]	CC50 (HepG2) [µM]	pEC50 (Hepatitis B virus)	CC50 (Human gammaherpesvirus 4 [5]) [µM]	pEC50 (Human gammaherpesvirus 4 [6])	pEC50 (Human alphaherpesvirus 3)	pEC50 (Human gammaherpesvirus 4 [7])	pEC50 (HFF [8])	CC50 (Murid betaherpesvirus 1)
Nc1nc2c(ncn2COC(CO)CO)c(=O)[nH]1 [GANCICLOVIR]	> 35	5.39	> 100	5.64	5.30	> 392	–	–	–	–	–	–	–	–
Nc1nc(N)c2ncn(C=C3CC3(CO)CO)c2n1 [listing 1 of 3 here]	–	< 4.00	> 100	3.50	–	> 381	> 100	< 4.70	191	< 4.70	3.57	> 6.51	–	–
Nc1nc(NC2CC2)c2ncn(/C=C3/CC3(CO)CO)c2n1	–	< 4.00	> 100	3.59	–	> 331	> 100	< 4.70	> 165	< 4.70	< 4.18	< 3.78	–	–
Nc1nc2c(ncn2/C=C2\CC2(CO)CO)c(=O)[nH]1	> 380	4.41	> 100	3.92	4.38	> 380	> 50	< 4.70	> 190	< 4.70	< 3.45	3.92	–	–
Nc1ncnc2c1ncn2/C=C1\CC1(CO)CO	–	< 4.00	> 100	< 3.39	–	> 404	> 50	< 5.00	> 202	< 4.70	4.93	3.88	4.35	–
COc1nc(N)nc2c1ncn2C=C1CC1(CO)CO [listing 1 of 3 here]	–	< 4.00	> 100	< 3.44	–	> 361	> 100	< 4.70	> 180	< 4.70	3.49	< 3.74	–	–
Nc1nc(Cl)c2ncn(C=C3CC3(CO)CO)c2n1 [listing 1 of 2 here]	–	< 4.00	> 100	< 3.45	–	> 355	23.6	< 4.70	> 178	4.79	< 4.15	< 3.75	–	–
Nc1ccn(/C=C2/CC2(CO)CO)c(=O)n1	> 448	4.49	> 100	4.84	4.27	> 448	> 50	< 5.00	70	< 4.70	< 3.35	< 4.35	–	–
Nc1nc(N)c2ncn(C=C3CC3(CO)CO)c2n1 [listing 2 of 3 here]	–	–	–	–	–	–	–	–	–	–	–	–	–	Not toxic
Nc1nc(F)c2ncn(C=C3CC3(CO)CO)c2n1 [listing 1 of 2 here]	176	4.42	> 100	4.65	4.72	> 377	56.4	< 4.70	> 189	4.68	4.38	< 3.72	4.30	–
Cc1cn(/C=C2/CC2(CO)CO)c(=O)[nH]c1=O	–	< 4.00	> 100	< 3.38	–	> 420	> 50	< 5.00	> 210	4.72	< 3.38	5.34	–	–
Nc1nc(F)c2ncn(C=C3CC3(CO)CO)c2n1 [listing 2 of 2 here]	176	4.48	> 100	4.36	4.72	> 337	> 100	7.70	> 189	4.73	4.50	< 3.72	3.74	–
Nc1nc(N)c2ncn(C=C3CC3(CO)CO)c2n1 [listing 3 of 3 here]	–	4.82	> 100	< 3.42	–	> 381	48	5.40	> 191	< 4.70	5.08	< 3.72	4.41	–
Nc1nc(NC2CC2)c2ncn(/C=C3\CC3(CO)CO)c2n1	–	< 4.00	> 100	3.49	–	> 331	> 100	< 4.70	> 165	< 4.70	< 3.48	6.52	–	–
Nc1ccn(/C=C2\CC2(CO)CO)c(=O)n1	–	< 4.00	> 100	< 3.35	–	> 448	> 50	< 5.00	> 224	< 4.70	< 3.35	3.82	–	–
Cc1cn(/C=C2\CC2(CO)CO)c(=O)[nH]c1=O	–	< 4.00	> 100	< 3.38	–	> 420	> 50	< 5.00	> 210	< 4.70	< 3.38	3.75	–	–
COc1nc(N)nc2c1ncn2C=C1CC1(CO)CO [listing 2 of 3 here]	> 361	5.46	> 100	5.57	5.70	> 361	90	< 4.70	> 180	5.32	4.95	3.79	5.48	–
COc1nc(N)nc2c1ncn2C=C1CC1(CO)CO [listing 3 of 3 here]	–	–	–	–	–	–	–	–	–	–	–	–	–	Not toxic
Nc1ncnc2c1ncn2/C=C1/CC1(CO)CO	> 404	5.44	100	4.93	5.01	> 404	> 50	< 5.00	> 202	4.80	< 3.39	3.78	–	–
Nc1nc2c(ncn2/C=C2/CC2(CO)CO)c(=O)[nH]1 [FILOCICLOVIR]	> 380	6.34	> 100	6.31	6.57	> 380	> 50	< 5.00	74	5.15	< 3.42	4.35	–	–
Nc1nc(Cl)c2ncn(C=C3CC3(CO)CO)c2n1 [listing 2 of 2 here]	–	< 4.00	> 100	< 3.45	–	> 301	11.6	< 4.70	> 178	4.79	< 4.15	3.85	–	–
